# Measured values: ChEMBL document CHEMBL4477225, “Development of a cell viability assay to assess drug metabolite structure-toxicity relationships” (Bioorg Med Chem Lett, 2016)
# Tests used:
# Type in all cases: ADME, cell-based
# [1] = molecular target: T1, Cytochrome P450 3A4 (Homo sapiens, UniProt P08684); experiment: (§1) Drug activation in human Hep3B cells assessed as human CYP3A4-mediated drug metabolism-induced cytotoxicity measured as decrease in cell viability at 10.7 uM pre-incubated with BSO for 18 hrs followed by incubation with compound for 3 hrs in presence of NADPH measured after 24 hrs in absence of compound, CYP3A4 and NADPH by cell titer-glo luminescence assay relative to BSO alone; conditions: recombinant enzyme
# [2] = molecular target: T2, Cytochrome P450 2D6 (Homo sapiens, UniProt P10635); experiment: as §1, with “CYP2D6-mediated” for “CYP3A4-mediated”, “131.3” for “10.7”; conditions: recombinant enzyme
# [3] = molecular target: T3, Cytochrome P450 2C9 (Homo sapiens, UniProt P11712); experiment: as §1, with “CYP2C9-mediated” for “CYP3A4-mediated”, “77.6” for “10.7”; conditions: recombinant enzyme
# [4] = molecular target: T1, Cytochrome P450 3A4; experiment: as §1, with “89.6” for “10.7”; conditions: recombinant enzyme
# [5] = molecular target: T2, Cytochrome P450 2D6; experiment: as §1, with “CYP2D6-mediated” for “CYP3A4-mediated”, “130.3” for “10.7”; conditions: recombinant enzyme
# [6] = molecular target: T3, Cytochrome P450 2C9; experiment: as §1, with “CYP2C9-mediated” for “CYP3A4-mediated”, “118.7” for “10.7”; conditions: recombinant enzyme
# [7] = molecular target: T1, Cytochrome P450 3A4; experiment: as §1, with “9.6” for “10.7”; conditions: recombinant enzyme
# [8] = molecular target: T2, Cytochrome P450 2D6; experiment: as §1, with “CYP2D6-mediated” for “CYP3A4-mediated”, “8.6” for “10.7”; conditions: recombinant enzyme
# [9] = molecular target: T3, Cytochrome P450 2C9; experiment: as §1, with “CYP2C9-mediated” for “CYP3A4-mediated”, “14” for “10.7”; conditions: recombinant enzyme
# [10] = molecular target: T1, Cytochrome P450 3A4; experiment: as §1, with “89.1” for “10.7”; conditions: recombinant enzyme
# [11] = molecular target: T2, Cytochrome P450 2D6; experiment: as §1, with “CYP2D6-mediated” for “CYP3A4-mediated”, “162.8” for “10.7”; conditions: recombinant enzyme
# [12] = molecular target: T3, Cytochrome P450 2C9; experiment: as §1, with “CYP2C9-mediated” for “CYP3A4-mediated”, “200.9” for “10.7”; conditions: recombinant enzyme
# [13] = molecular target: T1, Cytochrome P450 3A4; experiment: as §1, with “37.6” for “10.7”; conditions: recombinant enzyme
# [14] = molecular target: T2, Cytochrome P450 2D6; experiment: as §1, with “CYP2D6-mediated” for “CYP3A4-mediated”, “66.8” for “10.7”; conditions: recombinant enzyme
# [15] = molecular target: T3, Cytochrome P450 2C9; experiment: as §1, with “CYP2C9-mediated” for “CYP3A4-mediated”, “59.9” for “10.7”; conditions: recombinant enzyme
# [16] = molecular target: T1, Cytochrome P450 3A4; experiment: as §1, with “14.9” for “10.7”; conditions: recombinant enzyme
# [17] = molecular target: T2, Cytochrome P450 2D6; experiment: as §1, with “CYP2D6-mediated” for “CYP3A4-mediated”, “20.8” for “10.7”; conditions: recombinant enzyme
# [18] = molecular target: T3, Cytochrome P450 2C9; experiment: as §1, with “CYP2C9-mediated” for “CYP3A4-mediated”, “78.1” for “10.7”; conditions: recombinant enzyme
# [19] = molecular target: T1, Cytochrome P450 3A4; experiment: as §1, with “6.5” for “10.7”; conditions: recombinant enzyme
# [20] = molecular target: T2, Cytochrome P450 2D6; experiment: as §1, with “CYP2D6-mediated” for “CYP3A4-mediated”, “4.8” for “10.7”; conditions: recombinant enzyme
# [21] = molecular target: T3, Cytochrome P450 2C9; experiment: as §1, with “CYP2C9-mediated” for “CYP3A4-mediated”, “10.7” left out; conditions: recombinant enzyme, 14.6 µM
# [22] = molecular target: T1, Cytochrome P450 3A4; experiment: as §1, with “80.2” for “10.7”; conditions: recombinant enzyme
# [23] = molecular target: T2, Cytochrome P450 2D6; experiment: as §1, with “CYP2D6-mediated” for “CYP3A4-mediated”, “129.2” for “10.7”; conditions: recombinant enzyme
# [24] = molecular target: T3, Cytochrome P450 2C9; experiment: as §1, with “CYP2C9-mediated” for “CYP3A4-mediated”, “210.8” for “10.7”; conditions: recombinant enzyme
# [25] = molecular target: T1, Cytochrome P450 3A4; experiment: as §1, with “0.3” for “10.7”; conditions: recombinant enzyme
# [26] = molecular target: T2, Cytochrome P450 2D6; experiment: as §1, with “CYP2D6-mediated” for “CYP3A4-mediated”, “3.4” for “10.7”; conditions: recombinant enzyme
# [27] = molecular target: T3, Cytochrome P450 2C9; experiment: as §1, with “CYP2C9-mediated” for “CYP3A4-mediated”, “2.8” for “10.7”; conditions: recombinant enzyme
# [28] = molecular target: T1, Cytochrome P450 3A4; experiment: as §1, with “2.2” for “10.7”; conditions: recombinant enzyme
# [29] = molecular target: T2, Cytochrome P450 2D6; experiment: as §1, with “CYP2D6-mediated” for “CYP3A4-mediated”, “3” for “10.7”; conditions: recombinant enzyme
# [30] = molecular target: T3, Cytochrome P450 2C9; experiment: as §1, with “CYP2C9-mediated” for “CYP3A4-mediated”, “25.3” for “10.7”; conditions: recombinant enzyme
# T1 sequence (P08684 whole entry): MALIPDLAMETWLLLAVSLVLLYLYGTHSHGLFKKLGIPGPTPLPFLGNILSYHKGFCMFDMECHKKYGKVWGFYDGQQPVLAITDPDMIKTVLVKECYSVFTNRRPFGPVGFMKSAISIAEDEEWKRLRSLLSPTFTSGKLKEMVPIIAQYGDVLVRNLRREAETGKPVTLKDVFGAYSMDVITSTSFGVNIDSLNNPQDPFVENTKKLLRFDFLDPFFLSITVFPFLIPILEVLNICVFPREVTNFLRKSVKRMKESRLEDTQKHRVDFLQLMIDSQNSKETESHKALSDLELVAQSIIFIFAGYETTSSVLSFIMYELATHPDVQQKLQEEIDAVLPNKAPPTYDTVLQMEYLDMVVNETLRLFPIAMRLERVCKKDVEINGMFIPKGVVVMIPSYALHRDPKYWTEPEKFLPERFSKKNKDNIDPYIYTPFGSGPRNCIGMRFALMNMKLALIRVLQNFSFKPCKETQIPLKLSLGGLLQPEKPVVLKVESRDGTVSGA
# T3 sequence (P11712 whole entry): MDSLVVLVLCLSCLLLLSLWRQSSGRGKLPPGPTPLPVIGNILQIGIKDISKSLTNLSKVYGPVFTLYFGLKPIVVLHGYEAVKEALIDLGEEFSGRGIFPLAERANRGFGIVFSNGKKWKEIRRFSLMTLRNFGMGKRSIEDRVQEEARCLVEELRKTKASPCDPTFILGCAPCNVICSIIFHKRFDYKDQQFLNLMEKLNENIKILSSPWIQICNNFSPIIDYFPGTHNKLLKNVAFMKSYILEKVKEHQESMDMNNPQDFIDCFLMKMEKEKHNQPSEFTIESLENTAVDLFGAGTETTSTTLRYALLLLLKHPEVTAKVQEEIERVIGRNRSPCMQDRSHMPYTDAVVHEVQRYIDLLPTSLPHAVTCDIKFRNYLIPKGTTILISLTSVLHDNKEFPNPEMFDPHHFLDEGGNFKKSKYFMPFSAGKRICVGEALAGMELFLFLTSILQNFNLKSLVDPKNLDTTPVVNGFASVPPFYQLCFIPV
# T2 sequence (P10635 whole entry): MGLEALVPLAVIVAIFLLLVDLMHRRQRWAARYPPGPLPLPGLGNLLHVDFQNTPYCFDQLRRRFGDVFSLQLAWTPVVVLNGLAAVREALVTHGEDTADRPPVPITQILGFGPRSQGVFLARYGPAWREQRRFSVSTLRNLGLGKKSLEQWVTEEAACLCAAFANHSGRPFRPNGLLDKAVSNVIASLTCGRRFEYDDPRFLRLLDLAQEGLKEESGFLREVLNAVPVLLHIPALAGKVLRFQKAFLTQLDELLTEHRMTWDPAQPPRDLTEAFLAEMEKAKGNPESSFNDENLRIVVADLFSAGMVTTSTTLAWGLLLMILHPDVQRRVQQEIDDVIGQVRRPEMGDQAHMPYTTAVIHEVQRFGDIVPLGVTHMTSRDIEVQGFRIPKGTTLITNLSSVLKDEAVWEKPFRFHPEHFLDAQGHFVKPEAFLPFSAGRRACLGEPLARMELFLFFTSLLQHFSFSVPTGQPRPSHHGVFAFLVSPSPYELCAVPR
smiles,measurement,setting,value
CCN(CC)CC#CCOC(=O)C(O)(c1ccccc1)C1CCCCC1 (stereo not given) [OXYBUTYNIN],fold change (FC),[1],4.3
same,fold change (FC),[2],0.4
same,fold change (FC),[3],0.6
CN1CC(C(=O)N[C@]2(C)O[C@@]3(O)[C@@H]4CCCN4C(=O)[C@H](Cc4ccccc4)N3C2=O)C[C@@H]2c3cccc4[nH]cc(c34)C[C@H]21 (stereo not given in full),fold change (FC),[4],0.7
same,fold change (FC),[5],0.5
same,fold change (FC),[6],0.5
CC(COc1ccccc1)N(CCCl)Cc1ccccc1 (stereo not given) [PHENOXYBENZAMINE],fold change (FC),[7],1.3
same,fold change (FC),[8],1.5
same,fold change (FC),[9],0.9
CN1[C@@H]2CC[C@H]1C[C@@H](OC(c1ccccc1)c1ccccc1)C2 [BENZTROPINE],fold change (FC),[10],1.2
same,fold change (FC),[11],0.7
same,fold change (FC),[12],0.5
CC(C)(C)NC[C@H](O)COc1ccccc1C1CCCC1 [PENBUTOLOL],fold change (FC),[13],1.5
same,fold change (FC),[14],0.8
same,fold change (FC),[15],0.9
CC[C@@H](CO)NC(=O)[C@@H]1C=C2c3cccc4c3c(cn4C)C[C@H]2N(C)C1 [METHYSERGIDE],fold change (FC),[16],2.9
same,fold change (FC),[17],2.1
same,fold change (FC),[18],0.6
COc1cc(NC(C)CCCN)c2ncccc2c1 (stereo not given) [PRIMAQUINE],fold change (FC),[19],12.3
same,fold change (FC),[20],16.7
same,FC,[21],5.5
CN(C)C/C=C(/c1ccc(Br)cc1)c1cccnc1 [ZIMELDINE],fold change (FC),[22],2.8
same,fold change (FC),[23],1.8
same,fold change (FC),[24],1.1
CC(CCc1ccc(O)cc1)NCCc1ccc(O)c(O)c1 (stereo not given) [DOBUTAMINE],fold change (FC),[25],1023.9
same,fold change (FC),[26],89.2
same,fold change (FC),[27],108.1
CC(C)NCC(O)c1ccc(O)c(O)c1 (stereo not given) [ISOPROTERENOL],fold change (FC),[28],135.8
same,fold change (FC),[29],100.1
same,fold change (FC),[30],11.8
